*1 amine or outer side, *2 acyl side, *3 side chain or, on linkers, in order; H or OH if unused. Where a SMILES comes first, the peptide text is derived from it. Side-chain parts run from the residue outwards. [ ]: non-standard residue; d: D form. The star is where a group is joined. C18 diacid = O=C(O)CCCCCCCCCCCCCCCCC(=O)*; C16 diacid = O=C(O)CCCCCCCCCCCCCCC(=O)*; γGlu = O=C(O)[C@H](CCC(=O)[*:2])N[*:1]; NMeI = CC[C@H](C)[C@H](NC)C(=O)O; Dap = NC[C@H](N)C(=O)O; AEEA = NCCOCCOCC(=O)O; Aib = CC(C)(N)C(=O)O
What was measured:
[1] = molecular target: T1, human CRF2a receptor (Homo sapiens, UniProt Q13324); assay: Activity at human CRF2a receptor, cAMP functional assay in TeloHEAC cells; format: cell-based; conditions: TeloHEAC cells stably expressing human CRF2a receptor, relative to urocortin 2 (100 nM = 100%)
T1 construct: expressed in transfected cells; host or cells: TeloHEAC cells
T1 sequence (Q13324 1-411): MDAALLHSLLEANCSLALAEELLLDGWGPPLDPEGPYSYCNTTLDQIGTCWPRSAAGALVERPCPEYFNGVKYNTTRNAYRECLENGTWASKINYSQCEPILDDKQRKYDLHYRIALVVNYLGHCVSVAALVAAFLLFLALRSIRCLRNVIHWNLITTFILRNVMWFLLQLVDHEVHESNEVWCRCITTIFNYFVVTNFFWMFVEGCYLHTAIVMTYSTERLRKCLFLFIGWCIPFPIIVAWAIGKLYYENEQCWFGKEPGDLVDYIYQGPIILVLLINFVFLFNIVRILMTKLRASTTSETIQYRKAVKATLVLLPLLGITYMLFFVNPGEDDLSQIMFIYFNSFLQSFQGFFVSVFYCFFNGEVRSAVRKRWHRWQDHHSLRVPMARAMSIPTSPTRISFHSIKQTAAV
In short: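 cAMP accumulation was measured by HTRF 665/620 nm ratio after 30 min at 37° C compound exposure (16 twofold dilutions) of CRF2a-expressing TeloHEAC cells, 10000/well, in HEPES-buffered HBSS plus IBMX. Activity was normalised to urocortin 2 at 100 nM (100%), and EC50 was the concentration giving half-maximal activation.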

[2] = molecular target: T2, CFR1R receptor (Homo sapiens, UniProt P34998); assay: Activity at anti-target CFR1R receptor, cAMP assay in CRF1R-overexpression CHO-K1 cells; format: cell-based; conditions: 100% = Sauvagine at 100 nM; for EC50: cAMP
T2 construct: host or cells: CHO-K1 (clone 2)
T2 sequence (P34998 24-415): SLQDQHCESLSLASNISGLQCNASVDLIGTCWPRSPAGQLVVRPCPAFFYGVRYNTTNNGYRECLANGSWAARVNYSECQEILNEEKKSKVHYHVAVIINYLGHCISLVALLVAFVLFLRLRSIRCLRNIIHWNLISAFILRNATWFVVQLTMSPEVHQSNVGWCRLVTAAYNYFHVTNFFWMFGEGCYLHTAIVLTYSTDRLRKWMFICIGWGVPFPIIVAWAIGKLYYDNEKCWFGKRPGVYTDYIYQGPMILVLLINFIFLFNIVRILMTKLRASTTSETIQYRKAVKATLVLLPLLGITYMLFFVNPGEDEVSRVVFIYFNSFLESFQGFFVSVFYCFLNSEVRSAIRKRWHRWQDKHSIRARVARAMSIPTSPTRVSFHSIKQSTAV
In short: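 Run as for the TeloHAEC line, except the full-activation control well received Sauvagine (100 nM) and final density was 4000 cells/well. Cells from clone 2 came from frozen aliquots of near-confluent cultures.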

[3] = Chemical stability in buffer (pH 7.4 / pH 4.5), % purity loss; format: physicochemical; conditions: 40° C. vs 5° C., 14 or 28 days; for Buffer stability pH 4.5 % purity loss: 100 mM acetate buffer pH 4.5; for Buffer stability pH 7.4 % purity loss: 100 mM phosphate buffer pH 7.4
In short: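 Compounds dissolved at 10 mg/mL target in 100 mM phosphate (pH 7.4) or 100 mM acetate (pH 4.5) buffer for 1 h at room temperature, then centrifuged. Diluted supernatant stored at 5 °C or 40 °C for 14 or 28 days; % purity loss by LC-UV.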

[4] = tested on: Sprague Dawley rats; assay: Effect on systolic blood pressure, telemetry in Sprague Dawley rats; format: in vivo, rat; conditions: 0.1 mg/kg SC; for Systolic blood pressure (Mean) % change from baseline, 8 h / Systolic blood pressure (Mean) % change from baseline, 12 h / Systolic blood pressure (Mean) % change from baseline, 24 h: n=2; for Duration of action: last time point with an effect on BP still observed
In short: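 Sprague Dawley rats with abdominal-aorta telemetry catheters, recovered ≥10 days, received 0.1 mg/kg SC of compound or vehicle. Systolic pressure recorded 1 h pre-dose as baseline, then continuously up to 48 hours, expressed as % change from baseline; duration of action is last time point with a BP effect (n=2).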

Row | EC50 [1] | Emax (% I) [2] | EC50 [2] | Buffer stability pH 4.5 % purity loss [3] | Buffer stability pH 7.4 % purity loss [3] | Compound | Systolic blood pressure (Mean) % change from baseline, 8 h [4] | Systolic blood pressure (Mean) % change from baseline, 12 h [4] | Systolic blood pressure (Mean) % change from baseline, 24 h [4] | Duration of action [4]
1 | 420 pM | 5 % I | > 250000 pM | 28.9% | 73.5% | CC[C@H](C)[C@H](NC(C)=O)C(=O)N[C@H](C(=O)N[C@@H](CC(C)C)C(=O)N[C@@H](CO)C(=O)N[C@@H](CC(C)C)C(=O)N[C@@H](CC(=O)O)C(=O)N[C@@H](C(=O)N1CCC[C@H]1C(=O)N[C@H](C(=O)N[C@@H](CCCCN)C(=O)N[C@@H](CC(C)C)C(=O)N[C@@H](CCCCNC(=O)CC[C@H](NC(=O)CCCCCCCCCCCCCCC(=O)O)C(=O)O)C(=O)N[C@@H](CCCCN)C(=O)N[C@H](C(=O)N[C@@H](CC(C)C)C(=O)N[C@@H](CC(C)C)C(=O)N[C@@H](CCC(=O)O)C(=O)N[C@@H](CCC(N)=O)C(=O)N[C@@H](CCC(=O)O)C(=O)N[C@@H](CCCCN)C(=O)N[C@@H](CCC(N)=O)C(=O)N[C@@H](CCCCN)C(=O)N[C@@H](CCCCN)C(=O)N[C@@H](CCC(N)=O)C(=O)N[C@@H](CCCNC(=N)N)C(=O)N[C@@H](CCC(=O)O)C(=O)N[C@@H](CCC(N)=O)C(=O)N[C@@H](C)C(=O)N[C@@H](CCC(=O)O)C(=O)N[C@H](C(=O)N[C@@H](CC(N)=O)C(=O)N[C@@H](CN)C(=O)N[C@@H](CCC(N)=O)C(=O)N[C@H](C(=O)N[C@@H](CC(C)C)C(=O)N[C@@H](C)C(=O)N[C@@H](CCC(N)=O)C(=O)N[C@H](C(N)=O)C(C)C)[C@@H](C)CC)[C@@H](C)O)[C@@H](C)CC)[C@@H](C)CC)C(C)C)C(C)C [compound 55] (Ac-IVLSLD[dV]PIKLK([γGlu-C16 diacid])KILLEQEKQKKQREQAETN[Dap]QILAQV-NH2) | −31% | −23% | 0% | 23 h
2 | 190 pM | 4 % I | > 250000 pM | nd/0 ^ % | – | CC[C@H](C)[C@H](NC)C(=O)N[C@H](C(=O)N[C@@H](CC(C)C)C(=O)N[C@@H](CO)C(=O)N[C@@H](CC(C)C)C(=O)N[C@@H](CC(=O)O)C(=O)N[C@@H](C(=O)N1CCC[C@H]1C(=O)N[C@H](C(=O)N[C@@H](CCCCN)C(=O)N[C@@H](CC(C)C)C(=O)N[C@@H](CCCCNC(=O)CC[C@H](NC(=O)CCCCCCCCCCCCCCC(=O)O)C(=O)O)C(=O)N[C@@H](CCCCN)C(=O)N[C@H](C(=O)N[C@@H](CC(C)C)C(=O)N[C@@H](CC(C)C)C(=O)N[C@@H](CCC(=O)O)C(=O)N[C@@H](CCC(N)=O)C(=O)N[C@@H](CCC(=O)O)C(=O)N[C@@H](CCCCN)C(=O)N[C@@H](CCC(N)=O)C(=O)N[C@@H](CCCCN)C(=O)N[C@@H](CCCCN)C(=O)N[C@@H](CCC(N)=O)C(=O)N[C@@H](CCCNC(=N)N)C(=O)N[C@@H](CCC(=O)O)C(=O)N[C@@H](CCC(N)=O)C(=O)N[C@@H](C)C(=O)N[C@@H](CCC(=O)O)C(=O)N[C@H](C(=O)N[C@@H](CC(N)=O)C(=O)NC(C)(C)C(=O)N[C@@H](CCC(N)=O)C(=O)N[C@H](C(=O)N[C@@H](CC(C)C)C(=O)N[C@@H](C)C(=O)N[C@@H](CCC(N)=O)C(=O)N[C@H](C(N)=O)C(C)C)[C@@H](C)CC)[C@@H](C)O)[C@@H](C)CC)[C@@H](C)CC)C(C)C)C(C)C [compound 64] (H-[NMeI]VLSLD[dV]PIKLK([γGlu-C16 diacid])KILLEQEKQKKQREQAETN[Aib]QILAQV-NH2) | −25% | −13% | 3% | 23 h
3 | 410 pM | 8 % I | > 250000 pM | 0% | 13.2% | CC[C@H](C)[C@H](NC(C)=O)C(=O)N[C@H](C(=O)N[C@@H](CC(C)C)C(=O)N[C@@H](CO)C(=O)N[C@@H](CC(C)C)C(=O)N[C@@H](CC(=O)O)C(=O)N[C@@H](C(=O)N1CCC[C@H]1C(=O)N[C@H](C(=O)N[C@@H](CCCCN)C(=O)N[C@@H](CC(C)C)C(=O)N[C@@H](CCCCNC(=O)COCCOCCNC(=O)COCCOCCNC(=O)CC[C@H](NC(=O)CCCCCCCCCCCCCCCCC(=O)O)C(=O)O)C(=O)N[C@@H](CCCCN)C(=O)N[C@H](C(=O)N[C@@H](CC(C)C)C(=O)N[C@@H](CC(C)C)C(=O)N[C@@H](CCC(=O)O)C(=O)N[C@@H](CCC(N)=O)C(=O)N[C@@H](CCC(=O)O)C(=O)N[C@@H](CCCCN)C(=O)N[C@@H](CCC(N)=O)C(=O)N[C@@H](CCCCN)C(=O)N[C@@H](CCCCN)C(=O)N[C@@H](CCC(N)=O)C(=O)N[C@@H](CCCNC(=N)N)C(=O)N[C@@H](CCC(=O)O)C(=O)N[C@@H](CCC(N)=O)C(=O)N[C@@H](C)C(=O)N[C@@H](CCC(=O)O)C(=O)N[C@H](C(=O)N[C@@H](CC(N)=O)C(=O)N[C@@H](C)C(=O)N[C@@H](CCC(N)=O)C(=O)N[C@H](C(=O)N[C@@H](CC(C)C)C(=O)N[C@@H](C)C(=O)N[C@@H](CCC(N)=O)C(=O)N[C@H](C(N)=O)C(C)C)[C@@H](C)CC)[C@@H](C)O)[C@@H](C)CC)[C@@H](C)CC)C(C)C)C(C)C [compound 100] (Ac-IVLSLD[dV]PIKLK([AEEA-AEEA-γGlu-C18 diacid])KILLEQEKQKKQREQAETNAQILAQV-NH2) | −22% | −12% | −9% | >24 h
4 | 350 pM | 6 % I | > 250000 pM | 0% | 14.7% | CC[C@H](C)[C@H](NC)C(=O)N[C@H](C(=O)N[C@@H](CC(C)C)C(=O)N[C@@H](CO)C(=O)N[C@@H](CC(C)C)C(=O)N[C@@H](CC(=O)O)C(=O)N[C@@H](C(=O)N1CCC[C@H]1C(=O)N[C@H](C(=O)N[C@@H](CCCCN)C(=O)N[C@@H](CC(C)C)C(=O)N[C@@H](CCCCNC(=O)COCCOCCNC(=O)COCCOCCNC(=O)CC[C@H](NC(=O)CCCCCCCCCCCCCCCCC(=O)O)C(=O)O)C(=O)N[C@@H](CCCCN)C(=O)N[C@H](C(=O)N[C@@H](CC(C)C)C(=O)N[C@@H](CC(C)C)C(=O)N[C@@H](CCC(=O)O)C(=O)N[C@@H](CCC(N)=O)C(=O)N[C@@H](CCC(=O)O)C(=O)N[C@@H](CCCCN)C(=O)N[C@@H](CCC(N)=O)C(=O)N[C@@H](CCCCN)C(=O)N[C@@H](CCCCN)C(=O)N[C@@H](CCC(N)=O)C(=O)N[C@@H](CCCNC(=N)N)C(=O)N[C@@H](CCC(=O)O)C(=O)N[C@@H](CCC(N)=O)C(=O)N[C@@H](C)C(=O)N[C@@H](CCC(=O)O)C(=O)N[C@H](C(=O)N[C@@H](CC(N)=O)C(=O)N[C@@H](C)C(=O)N[C@@H](CCC(N)=O)C(=O)N[C@H](C(=O)N[C@@H](CC(C)C)C(=O)N[C@@H](C)C(=O)N[C@@H](CCC(N)=O)C(=O)N[C@H](C(N)=O)C(C)C)[C@@H](C)CC)[C@@H](C)O)[C@@H](C)CC)[C@@H](C)CC)C(C)C)C(C)C [compound 113] (H-[NMeI]VLSLD[dV]PIKLK([AEEA-AEEA-γGlu-C18 diacid])KILLEQEKQKKQREQAETNAQILAQV-NH2) | −31% | −24% | −7% | >24 h

Source: patent US20260001928A1 (CORTERIA PHARMACEUTICALS, priority 2022, published 2026)
